Source: paper PMC12207590, “Substrate Specificity of the Organic Cation Transporters MATE1 and MATE2K and Functional Overlap with OCT1 and OCT2” (Journal of Medicinal Chemistry, 2025)
Like-named read-outs stand apart in the source and are kept apart here.

Tests used:
hCMEC [1] = assay: TS DPH hCMEC (Table S2); assay type: cell-based, human; parameters: scale not given here
MATE2K [2] = target: T1, MATE2K (Homo sapiens, UniProt Q86VL8); assay: Concentration-dependent uptake (Michaelis-Menten) via MATE2K in HEK293 cells; conditions: HEK293, 1 min, net uptake; for Km: read-out: MATE2K KM
T1 sequence (Q86VL8 1-566 isoform Q86VL8-3): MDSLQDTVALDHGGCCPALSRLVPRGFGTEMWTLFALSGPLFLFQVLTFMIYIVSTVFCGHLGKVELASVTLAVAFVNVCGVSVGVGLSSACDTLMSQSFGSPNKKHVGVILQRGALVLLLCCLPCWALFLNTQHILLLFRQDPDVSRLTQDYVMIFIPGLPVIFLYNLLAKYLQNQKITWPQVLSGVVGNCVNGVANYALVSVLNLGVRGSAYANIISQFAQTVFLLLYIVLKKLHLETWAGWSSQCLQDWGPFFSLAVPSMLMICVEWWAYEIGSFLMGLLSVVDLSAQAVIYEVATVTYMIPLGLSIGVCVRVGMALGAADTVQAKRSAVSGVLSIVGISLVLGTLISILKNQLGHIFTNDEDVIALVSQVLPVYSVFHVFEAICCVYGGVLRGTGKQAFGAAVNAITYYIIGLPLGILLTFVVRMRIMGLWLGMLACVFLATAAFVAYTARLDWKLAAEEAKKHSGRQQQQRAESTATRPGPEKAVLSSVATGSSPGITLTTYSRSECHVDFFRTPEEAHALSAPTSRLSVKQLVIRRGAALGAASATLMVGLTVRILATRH

MATE1 [3] = target: T2, MATE1 (Homo sapiens, UniProt Q96FL8); assay: Concentration-dependent uptake (Michaelis-Menten) via MATE1 in HEK293 cells; conditions: HEK293, 1 min, net uptake; for Km: read-out: MATE1 KM
T2 sequence (Q96FL8 1-570): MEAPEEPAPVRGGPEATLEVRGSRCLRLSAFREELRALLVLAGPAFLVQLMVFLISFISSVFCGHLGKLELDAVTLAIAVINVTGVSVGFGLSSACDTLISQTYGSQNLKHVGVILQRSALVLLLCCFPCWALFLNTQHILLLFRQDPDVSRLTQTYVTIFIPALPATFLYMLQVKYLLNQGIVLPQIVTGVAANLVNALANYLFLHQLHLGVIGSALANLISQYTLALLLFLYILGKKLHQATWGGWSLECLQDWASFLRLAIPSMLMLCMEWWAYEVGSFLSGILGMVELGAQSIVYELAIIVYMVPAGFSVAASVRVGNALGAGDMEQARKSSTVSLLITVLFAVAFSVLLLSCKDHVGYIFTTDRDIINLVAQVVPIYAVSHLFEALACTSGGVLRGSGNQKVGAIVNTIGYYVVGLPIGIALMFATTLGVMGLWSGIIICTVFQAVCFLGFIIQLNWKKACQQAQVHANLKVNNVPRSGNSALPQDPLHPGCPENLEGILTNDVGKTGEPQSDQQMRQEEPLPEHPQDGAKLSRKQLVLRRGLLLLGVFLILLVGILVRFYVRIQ

hCMEC [4] = assay: TS MDAI hCMEC (Table S2); assay type: cell-based, human; parameters: scale not given here
MATE1 [5] = target: T2, MATE1; assay: Uptake ratio in MATE1-overexpressing HEK293 cells vs empty vector (2.5 μM, 1 min, HPLC-MS/MS); assay type: cell-based; conditions: for MATE1: uptake ratio MATE1-overexpressing vs empty-vector HEK293 cells, mean
MATE2K [6] = target: T1, MATE2K; assay: Uptake ratio in MATE2K-overexpressing HEK293 cells vs empty vector (2.5 μM, 1 min, HPLC-MS/MS); assay type: cell-based; conditions: for MATE2: uptake ratio MATE2K-overexpressing vs empty-vector HEK293 cells, mean
[7] = fold uptake over empty vector, 2.5 μM, 1 min

Compound	TS DPH hCMEC (hCMEC [1]; Table S2)	MATE2K Vmax (MATE2K [2])	MATE1 Vmax (MATE1 [3])	TS MDAI hCMEC (hCMEC [4]; Table S2)	Km (MATE2K [2])	MATE1 ratio (MATE1 [5]; [7])	MATE2K ratio (MATE2K [6]; [7])	Km (MATE1 [3])	other results
Cc1c(N)c(=O)n(-c2ccccc2)n1C [4-Aminoantipyrine]	1.09	linear	linear	1.01	–	–	–	–	–
NCCc1ccc(O)c(O)c1 [Dopamine]	–	1219 pmol × mg protein^–1 × min^–1	10,148 pmol × mg protein^–1 × min^–1	–	961 µM	39.94	1.97	530 µM	–
NC[C@H](O)c1ccc(O)c(O)c1 [Norepinephrine]	–	673 pmol × mg protein^–1 × min^–1	18,720 pmol × mg protein^–1 × min^–1	–	1150 µM	–	–	1870 µM	–
O=C1CC2(CCCC2)CC(=O)N1CCCCN1CCN(c2ncccn2)CC1 [Buspirone]	–	–	–	–	–	–	–	–	TS DPH hCMEC (hCMEC [1]): 0.56; MATE1 (uptake ratio) (MATE1 [5]): 2.36; MATE1 ratio (MATE1 [5]): 2.36; MATE2 (uptake ratio) (MATE2K [6]): 1.36; MATE2K ratio (MATE2K [6]): 1.36; TS MDAI hCMEC (hCMEC [4]): 0.64
CC(Cc1ccc(O)cc1)NCC(O)c1cc(O)cc(O)c1 (stereo not drawn) [Fenoterol]	–	–	–	–	–	–	–	–	TS DPH hCMEC (hCMEC [1]): 1.47; MATE1 ratio (MATE1 [5]): 14.98; MATE1 ratio in this study (MATE1 [5]): 14.98; MATE2K ratio (MATE2K [6]): 5.46; MATE2K ratio in this study (MATE2K [6]): 5.46; TS MDAI hCMEC (hCMEC [4]): 1.16
COCCOC(=O)C1=C(C)NC(C)=C(C(=O)OC(C)C)C1c1cccc([N+](=O)[O-])c1 (stereo not drawn) [Nimodipine]	1.28	–	–	1.25	–	1.33	1.20	–	–
Cc1ncc(CO)c(CO)c1O [Pyridoxin]	–	593 pmol × mg protein^–1 × min^–1	10,014 pmol × mg protein^–1 × min^–1	–	495 µM	2.33	1.18	4230 µM	MATE1 (MATE1 [5]; 2.5 μM, 1 min): 2.33; MATE2 (MATE2K [6]; 2.5 μM, 1 min): 1.18
NCCc1ccc(O)cc1 [Tyramine]	–	2868 pmol × mg protein^–1 × min^–1	5948 pmol × mg protein^–1 × min^–1	–	1060 µM	–	–	136 µM	MATE1 ratio in this study (MATE1 [5]; Table S1, 2.5 μM, 1 min): 10.06; MATE1 (MATE1 [5]; 2.5 μM, 1 min): 10.06; MATE2K ratio in this study (MATE2K [6]; Table S1, 2.5 μM, 1 min): 1.39; MATE2 (MATE2K [6]; 2.5 μM, 1 min): 1.39
Cc1cccc(C(C)c2cnc[nH]2)c1C (stereo not drawn) [Medetomidine]	0.79	–	–	0.96	–	1.11	1.21	–	–
CCOC(=O)[C@]1(c2ccccc2)CCC=C[C@H]1NC [Nortilidine]	–	–	–	–	–	–	–	–	TS DPH hCMEC (hCMEC [1]): 0.53; MATE1 ratio (MATE1 [5]): 1.19; MATE2K ratio (MATE2K [6]): 1.42; TS MDAI hCMEC (hCMEC [4]): 0.52
CN1CCC[C@@H]1Cc1c[nH]c2ccc(CCS(=O)(=O)c3ccccc3)cc12 [Eletriptan]	0.21	–	–	0.46	–	1.41	1.22	–	–
NCCc1ccc(Oc2ccc(O)cc2)c(I)c1 [3-Iodothyronamine (T1AM), 3-Iodothyronamine]	–	–	–	–	–	–	–	–	TS DPH hCMEC (hCMEC [1]): 0.86; MATE1 (uptake ratio) (MATE1 [5]): 1.36; MATE1 ratio (MATE1 [5]): 1.36; MATE2 (uptake ratio) (MATE2K [6]): 1.07; MATE2K ratio (MATE2K [6]): 1.07; TS MDAI hCMEC (hCMEC [4]): 1.11
Nc1nc(=O)n([C@@H]2CS[C@H](CO)O2)cc1F [Emtricitabine]	–	2634 pmol × mg protein^–1 × min^–1	4523 pmol × mg protein^–1 × min^–1	–	873 µM	3.22	2.88	992 µM	MATE1 ratio in this study (MATE1 [5]; Table S1, 2.5 μM, 1 min): 3.22; MATE2K ratio in this study (MATE2K [6]; Table S1, 2.5 μM, 1 min): 2.88
OC(CCN1CCCCC1)(c1ccccc1)C1CC2C=CC1C2 (stereo not drawn) [Biperiden]	0.25	–	–	0.26	–	1.24	1.15	–	MATE1 (uptake ratio) (MATE1 [5]; mean ratio of uptake in MATE1-overexpressing HEK293 cells vs empty vector, 2.5 μM, 1 min): 1.24; MATE2 (uptake ratio) (MATE2K [6]; mean ratio of uptake in MATE2K-overexpressing HEK293 cells vs empty vector, 2.5 μM, 1 min): 1.15
CCCN1CCCC[C@H]1C(=O)Nc1c(C)cccc1C [Ropivacaine]	0.15	–	–	0.37	–	1.22	1.49	–	MATE1 (MATE1 [5]; 2.5 μM, 1 min): 1.22; MATE2 (MATE2K [6]; 2.5 μM, 1 min): 1.49
O=C(O[C@H]1CN2CCC1CC2)N1CCc2ccccc2[C@@H]1c1ccccc1 [Solifenacin]	0.27	–	–	0.44	–	1.28	1.22	–	MATE1 (MATE1 [5]; 2.5 μM, 1 min): 1.28; MATE2 (MATE2K [6]; 2.5 μM, 1 min): 1.22
